Here are results for two compounds from patent EP0791044B1, “HYDROPHOBIC PEROXYACID BLEACH PRECURSOR COMPOSITIONS STABILISED WITH A WATER SOLUBLE CARBOXYLIC ACID” (THE PROCTER & GAMBLE COMPANY, priority 1994, dated 1996).

This data set can be described thus: Beaker Perhydrolysis Test (Sotax Dissolution Tester) of model detergent formulation containing the precursor material. Conditions: for peroxyacid yield: percent of the theoretically available weight of peracid. The data set is classed as physicochemical. How it is done:
For the purpose of the present invention, unrestrained dissolution conditions are defined as those existing in the Beaker Perhydrolysis Test as carried out using a Sotax Dissolution Tester Model AT6 supplied by Sotax AG CH-4008 BASEL Switzerland. This Apparatus comprises an array of polycarbonate beakers, each capable of holding 1 litre of water, supported in a thermostatically controlled water bath. Each beaker is provided with a paddle stirrer whose speed can be controlled.
Add 5ml potassium iodide solution to the first titration beaker. • 7- Take a 10ml aliquot from Sotax beaker No. 1 and discharge into the first titration beaker at t=1 minute. • 8- Add the second sample to Sotax beaker No.2 at t= 1 minute and add 5 ml potassium iodide to a second titration beaker. • 9- Titrate the first aliquot against 0.005 M sodium thiosulphate solution until the solution is first decolourised (The colour is slowly regenerated as the solution warms and the perhydrate reacts with the iodide). • 10- Take a 10 ml aliquot from Sotax beaker No.2 at t= 2 minutes and discharge into the second titration beaker and repeat step . • 11- Take further aliquots at the following times (t= minutes)
The aliquots from Beaker No. 1 at 1 minute and from Beaker No. 2 at 2 minutes constitutes replicates and the results are averaged to give a figure from which the % perhydrolysis is calculated.
Material from each example was then incorporated into a model detergent formulation having the composition in % by weight.
The four formulations were then subjected to a Beaker Perhydrolysis Test as hereinbefore described and gave the peroxyacid yields shown in Table 1. Results are given for 1, 3, 5 & 10 minutes elapsed time and are expressed in percent of the theoretically available weight of peracid.

With `CCCCCCCCCC(=O)NCCCCCC(=O)Oc1ccc(S(=O)(=O)O)cc1` [C10 oxybenzenesulfonate (raw material), (6-decanamido-caproyl) oxybenzenesulfonate], the peroxyacid yield reads like this: (3 minutes from start of perhydrolysis, Temperature = 30°C, hard water (25° Clarck)) 25%; (5 minutes from start of perhydrolysis, Temperature = 30°C, hard water (25° Clarck)) 31%; (10 minutes from start of perhydrolysis, Temperature = 30°C, hard water (25° Clarck)) 34%.
On to “benzoyl caprolactam [3 (benzoyl caprolactam)]”, for which the perhydrolysis rate entry (effect of agglomeration with citric acid versus raw material form, 40°C) is “No such enhancement”. The peroxyacid yield is, setting by setting: (1 minute from start of perhydrolysis, Temperature = 40°C, water 12° Clark) 14%; (3 minutes from start of perhydrolysis, Temperature = 40°C, water 12° Clark) 37%; (5 minutes from start of perhydrolysis, Temperature = 40°C, water 12° Clark) 52%; (10 minutes from start of perhydrolysis, Temperature = 40°C, water 12° Clark) 71%.
